Experimental findings from patent publication US20250257060A1, “OXADIAZOLE COMPOUND, PHARMACEUTICAL COMPOSITION COMPRISING SAME, AND USE THEREOF” (SUZHOU GENHOUSE BIO CO., LTD., priority 2022, published 2025) are described below.

The nature of data set [1]: Brain-to-blood drug concentration ratio of mice. The class given is in vivo. Particulars: mouse; for Kp at 1 h / Kp at 4 h: brain/plasma. The method, boiled down: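 Mice (9/group) dosed once IV or PO; orbital blood into K2-EDTA tubes for plasma, with brain homogenate, processed by acetonitrile precipitation (propafenone internal standard) and measured by LC-MS/MS. Ratio taken as brain tissue concentration over plasma concentration at the same time point.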

Data set [2] can be described thus: Phase I metabolic stability in monkey liver microsomes (CLMs). Format: in vitro ADME, cynomolgus monkeys. Further details: microsomal CLint: dose or concentration left out as unconfirmed. The settings on record: CLM; for Remaining rate (NCF = 60 min): buffer instead of NADPH regeneration system; for Remaining rate (T = 60 min): with NADPH; for CLint scaled at 1 µM / half-life at 1 M / microsomal CLint: cynomolgus monkey, liver microsomes, pH 7.4; for microsomal CLint: read-out: CLint (mic). On the procedure: (§1) Phase I metabolic stability of the test compounds in liver microsomes of CD-1 mice (MLMs), Sprague-Dawley rats (RLMs), beagle dogs (DLMs), cynomolgus monkeys (CLMs), and humans (HLMs) was evaluated.
(§2) The animal and human liver microsomes used in the test system were purchased from Xenotech, Corning, or other qualified suppliers and stored in a freezer at a temperature below −60° C. prior to use.
(§3) The test samples and control compounds were separately incubated with animal and human liver microsomes at 37±1° C. for a period of incubation time up to 60 min. The samples were removed at the indicated time points, and the reaction was stopped with acetonitrile or other organic solvents containing an internal standard. After centrifugation, the resulting supernatants were assayed by liquid chromatography-tandem mass spectrometry (LC-MS/MS).
(§4) 73.21 g of dipotassium hydrogenphosphate trihydrate and 10.78 g of potassium dihydrogenphosphate were dissolved in 4000 mL of ultrapure water. The solution was adjusted to pH 7.40±0.10 with 10% phosphoric acid or 1 M potassium hydroxide to make a final concentration of 100 mM.
(§5) The test sample powder was prepared into a stock solution at a certain concentration with DMSO or other organic solvents, which was then further diluted with a proper organic solvent.
(§6) Microsomes of each species were diluted into a 2× working solution with a 100 mM potassium phosphate buffer. The final concentration of the microsomes in the reaction system was 0.5 mg/mL.
(§7) An appropriate amount of nicotinamide adenine dinucleotide phosphate (NADP) and isocitric acid (ISO) powder was weighed out, dissolved in a magnesium chloride solution, and shaken and mixed well. An appropriate amount of isocitrate dehydrogenase (IDH) was added, and the mixture was mixed well by gently turning upside down. The final concentrations in the reaction system were: 1 mM NADP, 1 mM magnesium chloride, 6 mM ISO, and 1 unit/mL IDH.
(§8) Incubation was performed in a 96-well plate. Eight incubation plates were prepared and designated T0, T5, T15, T30, T45, T60, Blank60, and NCF60, respectively. The first 6 plates corresponded to reaction time points of 0, 5, 15, 30, 45, and 60 min, respectively. No test sample or control compound was added to the Blank60 plate, and samples were taken after 60 min of incubation. In the NCF60 plate, incubation was performed for 60 min using the potassium phosphate buffer instead of the NADPH regeneration system solution. Three replicates were made for samples in all conditions.
(§9) The microsomes and the test sample or control compound were mixed, and then the incubation plates Blank60, T5, T15, T30, T45, and T60 except for TO and NCF60 were placed in a 37° C. water bath for pre-incubation for about 10 min. In the incubation plate TO, a stop solution was first added, followed by addition of the NADPH regeneration system working solution, and 98 μL of the potassium phosphate buffer was added to each sample well of the incubation plate NCF60 to initiate the reaction. After the pre-incubations of the incubation plates Blank60, T5, T15, T30, T45, and T60 were completed, 98 μL of the NADPH regeneration system working solution was added to each sample well to initiate the reaction. The reaction temperature was 37±1° C., the final volume of the reaction was 200 μL, and the reaction system included 0.5 mg/mL microsomes, […], 1 mM NADP, 6 mM ISO, and 1 unit/mL IDH.
(§10) At 5 min, 15 min, 30 min, 45 min, and 60 min, a cold stop solution containing an internal standard was added to the reaction plate to stop the reaction.
(§11) All the reaction plates after the reaction was stopped were shaken well and centrifuged at 3220×g at 4° C. for 20 min. After the supernatant was diluted according to a certain proportion, LC-MS/MS analysis was performed.
(§12) Sample analysis was performed by the liquid chromatography-tandem mass spectrometry (LC-MS/MS) method without standard curves and quality control samples. […]
On the technique in general: Microsomes from liver hold many membrane-bound enzymes, among them those of drug oxidation.

Data set [3] in a line: Phase I metabolic stability in dog liver microsomes (DLMs). Format: in vitro ADME, beagle dogs. Details: half-life: dose or concentration left out as unconfirmed. Particulars: DLM; for Remaining rate (NCF = 60 min): buffer instead of NADPH regeneration system; for Remaining rate (T = 60 min): with NADPH; for CLint scaled at 1 µM / half-life / microsomal CLint at 1 M: beagle, dog, liver microsomes, pH 7.4; for microsomal CLint at 1 M: read-out: CLint (mic). On the procedure:
as §1, §2, §3, §4, §5, §6, §7, §8, §9, §10, §11, §12

[4] abbreviates: brain, 2 mg/kg IV, read-out: Brain drug concentration.
The mark [5] stands for this setting: brain, 10 mg/kg PO, read-out: Brain drug concentration.
Setting [6] is: plasma, 2 mg/kg IV, read-out: Blood drug concentration.
Where [7] appears, read: plasma, 10 mg/kg PO, read-out: Blood drug concentration.

Read-outs that look alike come from different tables or passages of the source. Bounds are passed on as bounds.

`CC(F)(F)C(=O)N[C@@H]1CCCC[C@H]1N1Cc2ccc(-c3nnc(C(F)F)o3)cc2S1(=O)=O` [Compound 1]: in data set [1] (setting [4]), the concentration at 1 h is 285 ng/mL and the concentration at 4 h was 161 ng/mL. Besides, in data set [1] (setting [5]), the concentration at 1 h was 759 ng/mL and the concentration at 4 h worked out at 373 ng/mL. Besides, in data set [1] (2 mg/kg IV), the Kp at 1 h worked out at 0.29 and the partition ratio (Kp) at 4 h stood at 0.36. In addition, in data set [1] (10 mg/kg PO), the Kp at 1 h was 0.18 and the Kp at 4 h was found to be 0.15. For the same compound, in data set [1] (setting [6]), the concentration at 1 h came out at 986 ng/mL and the concentration at 4 h was 453 ng/mL. Moreover, in data set [1] (setting [7]), the concentration at 1 h was 4270 ng/mL and the concentration at 4 h stood at 2500 ng/mL. In addition, in data set [2], the “Remaining rate (NCF = 60 min)” value amounted to 94.8%, the “Remaining rate (T = 60 min)” value is listed as 79.1%, the CLint scaled at 1 µM is less than 13 mL/min/kg and the half-life at 1 M was more than 2.42 h. The microsomal CLint in data set [2] was less than 9.6 µL/min/mg. In addition, in data set [3], the “Remaining rate (NCF = 60 min)” value is 98.9%, the “Remaining rate (T = 60 min)” value is on record as 86.6%, the CLint scaled at 1 µM is less than 13.8 mL/min/kg and the half-life was more than 2.42 h. The microsomal CLint at 1 M in data set [3] was less than 9.6 µL/min/mg.
With `O=C(N[C@@H]1CCCC[C@H]1N1Cc2ccc(-c3nnc(C(F)F)o3)cc2S1(=O)=O)C(F)F` [Compound 2], in data set [1] (setting [4]), the concentration at 1 h came out at 268 ng/mL and the concentration at 4 h was 149 ng/mL. Also, in data set [1] (setting [5]), the concentration at 1 h was found to be 882 ng/mL and the concentration at 4 h turned out to be 435 ng/mL. In addition, in data set [1] (2 mg/kg IV), the partition ratio (Kp) at 1 h was found to be 0.26 and the Kp at 4 h was 0.25. In data set [1] (10 mg/kg PO), the Kp at 1 h was found to be 0.18 and the Kp at 4 h was found to be 0.15. For the same compound, in data set [1] (setting [6]), the concentration at 1 h was found to be 1090 ng/mL and the concentration at 4 h came out at 595 ng/mL. In addition, in data set [1] (setting [7]), the concentration at 1 h worked out at 4990 ng/mL and the concentration at 4 h turned out to be 2830 ng/mL. Moreover, in data set [2], the “Remaining rate (NCF = 60 min)” value worked out at 101.5%, the “Remaining rate (T = 60 min)” value was 88.8%, the CLint scaled at 1 µM is less than 13 mL/min/kg and the half-life at 1 M is more than 2.42 h. For the same compound, the microsomal CLint in data set [2] was less than 9.6 µL/min/mg. Also, in data set [3], the “Remaining rate (NCF = 60 min)” value is on record as 90.9%, the “Remaining rate (T = 60 min)” value was determined as 85.8%, the CLint scaled at 1 µM is less than 13.8 mL/min/kg and the half-life is more than 2.42 h. The microsomal CLint at 1 M in data set [3] was less than 9.6 µL/min/mg.

As a reminder, the Kp is the ratio of the level in a tissue or fluid to that in plasma or blood. A word on the CLint scaled: it is the capacity of the preparation to metabolise the compound, expressed as a volume cleared per time. By half-life is commonly meant the time in which the quantity being followed falls by half.
